Reference: patent US10047051B2, “Substituted pyridines and method of use” (AbbVie S.á{acute over (.)}r.l., priority 2015, dated 2018)
pEC50: −log10 of the molar value.

Columns and labels:
[1] = target: T1, CFTR G551D mutant (Homo sapiens, UniProt P13569, G551D); test: YFP-halide influx assay for the CFTR-G551D mutation (HEK293 cells); assay type: cell-based; conditions: forskolin 10.67 μM
T1 construct: expressed in transfected cells; host or cells: HEK293 cells, reverse transfection with plasmids
Method in brief: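 HEK293 cells reverse-transfected with CFTR G551D and halide-sensitive YFP (H148Q/I152L/F47L), expressed 24 h at 37 °C. YFP fluorescence quenching recorded for 7 s after I⁻ injection. Response = 1−F/F0; EC50 derived from 1−F/F0 vs compound concentration.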

[2] = target: T2, CFTR ΔF508 mutant (Homo sapiens, UniProt P13569, DEL508-508); test: YFP-halide influx assay for the CFTR-ΔF508 mutation (CFBE41o- cells); assay type: cell-based; conditions: forskolin 10.67 μM; for pEC50: from (1−F/F0) vs concentration plot
T2 construct: expressed in transfected cells; host or cells: CFBE41o- cells, adenoviral transduction
Method in brief: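 CFBE41o- cells transduced with adenovirus expressing CFTR ΔF508 and halide-sensitive YFP H148Q/I152L/F47L, then held 24 h at 27° C or with a CFTR modulator 24 h at 37° C. Iodide-induced quench recorded 2 min; EC50 from (1−F/F0) at 36 s versus concentration.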

T2 sequence (P13569 with tags, fused parts or gaps DEL508-508): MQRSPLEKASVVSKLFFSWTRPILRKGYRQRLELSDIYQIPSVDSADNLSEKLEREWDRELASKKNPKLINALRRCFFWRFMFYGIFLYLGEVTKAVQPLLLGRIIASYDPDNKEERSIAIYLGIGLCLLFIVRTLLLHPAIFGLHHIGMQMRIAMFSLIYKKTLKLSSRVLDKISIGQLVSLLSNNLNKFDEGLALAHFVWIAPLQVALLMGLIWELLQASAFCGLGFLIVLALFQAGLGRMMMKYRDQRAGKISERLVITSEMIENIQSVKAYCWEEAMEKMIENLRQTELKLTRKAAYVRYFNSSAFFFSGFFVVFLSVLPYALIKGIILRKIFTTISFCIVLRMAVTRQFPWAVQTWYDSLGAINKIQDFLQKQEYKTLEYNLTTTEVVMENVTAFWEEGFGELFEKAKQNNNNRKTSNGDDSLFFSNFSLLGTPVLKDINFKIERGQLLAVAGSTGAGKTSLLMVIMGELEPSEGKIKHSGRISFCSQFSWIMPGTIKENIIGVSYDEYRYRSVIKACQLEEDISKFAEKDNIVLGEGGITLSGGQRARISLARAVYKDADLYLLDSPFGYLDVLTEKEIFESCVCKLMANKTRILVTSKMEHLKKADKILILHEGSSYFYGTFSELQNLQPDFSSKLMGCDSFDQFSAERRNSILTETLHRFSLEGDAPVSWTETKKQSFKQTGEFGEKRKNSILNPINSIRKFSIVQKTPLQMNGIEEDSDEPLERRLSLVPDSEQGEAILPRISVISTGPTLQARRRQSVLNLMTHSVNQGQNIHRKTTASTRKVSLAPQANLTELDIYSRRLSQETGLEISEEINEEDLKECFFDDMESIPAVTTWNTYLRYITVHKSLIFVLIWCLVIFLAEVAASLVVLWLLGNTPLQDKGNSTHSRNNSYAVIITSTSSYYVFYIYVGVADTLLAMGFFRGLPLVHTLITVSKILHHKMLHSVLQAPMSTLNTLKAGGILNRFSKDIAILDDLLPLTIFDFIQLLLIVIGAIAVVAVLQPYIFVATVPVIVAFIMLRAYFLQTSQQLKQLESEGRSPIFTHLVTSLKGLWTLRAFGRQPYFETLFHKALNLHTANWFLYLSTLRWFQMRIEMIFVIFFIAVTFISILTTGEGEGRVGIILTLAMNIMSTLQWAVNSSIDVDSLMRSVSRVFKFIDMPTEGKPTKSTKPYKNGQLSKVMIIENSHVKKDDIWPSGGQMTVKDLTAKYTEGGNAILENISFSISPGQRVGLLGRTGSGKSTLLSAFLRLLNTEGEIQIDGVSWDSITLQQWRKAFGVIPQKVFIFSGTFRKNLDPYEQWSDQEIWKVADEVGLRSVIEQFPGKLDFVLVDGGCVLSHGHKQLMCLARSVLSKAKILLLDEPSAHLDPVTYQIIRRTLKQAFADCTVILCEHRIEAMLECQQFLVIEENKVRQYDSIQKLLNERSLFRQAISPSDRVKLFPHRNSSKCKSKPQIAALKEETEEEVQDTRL
T1 sequence (P13569 whole entry G551D): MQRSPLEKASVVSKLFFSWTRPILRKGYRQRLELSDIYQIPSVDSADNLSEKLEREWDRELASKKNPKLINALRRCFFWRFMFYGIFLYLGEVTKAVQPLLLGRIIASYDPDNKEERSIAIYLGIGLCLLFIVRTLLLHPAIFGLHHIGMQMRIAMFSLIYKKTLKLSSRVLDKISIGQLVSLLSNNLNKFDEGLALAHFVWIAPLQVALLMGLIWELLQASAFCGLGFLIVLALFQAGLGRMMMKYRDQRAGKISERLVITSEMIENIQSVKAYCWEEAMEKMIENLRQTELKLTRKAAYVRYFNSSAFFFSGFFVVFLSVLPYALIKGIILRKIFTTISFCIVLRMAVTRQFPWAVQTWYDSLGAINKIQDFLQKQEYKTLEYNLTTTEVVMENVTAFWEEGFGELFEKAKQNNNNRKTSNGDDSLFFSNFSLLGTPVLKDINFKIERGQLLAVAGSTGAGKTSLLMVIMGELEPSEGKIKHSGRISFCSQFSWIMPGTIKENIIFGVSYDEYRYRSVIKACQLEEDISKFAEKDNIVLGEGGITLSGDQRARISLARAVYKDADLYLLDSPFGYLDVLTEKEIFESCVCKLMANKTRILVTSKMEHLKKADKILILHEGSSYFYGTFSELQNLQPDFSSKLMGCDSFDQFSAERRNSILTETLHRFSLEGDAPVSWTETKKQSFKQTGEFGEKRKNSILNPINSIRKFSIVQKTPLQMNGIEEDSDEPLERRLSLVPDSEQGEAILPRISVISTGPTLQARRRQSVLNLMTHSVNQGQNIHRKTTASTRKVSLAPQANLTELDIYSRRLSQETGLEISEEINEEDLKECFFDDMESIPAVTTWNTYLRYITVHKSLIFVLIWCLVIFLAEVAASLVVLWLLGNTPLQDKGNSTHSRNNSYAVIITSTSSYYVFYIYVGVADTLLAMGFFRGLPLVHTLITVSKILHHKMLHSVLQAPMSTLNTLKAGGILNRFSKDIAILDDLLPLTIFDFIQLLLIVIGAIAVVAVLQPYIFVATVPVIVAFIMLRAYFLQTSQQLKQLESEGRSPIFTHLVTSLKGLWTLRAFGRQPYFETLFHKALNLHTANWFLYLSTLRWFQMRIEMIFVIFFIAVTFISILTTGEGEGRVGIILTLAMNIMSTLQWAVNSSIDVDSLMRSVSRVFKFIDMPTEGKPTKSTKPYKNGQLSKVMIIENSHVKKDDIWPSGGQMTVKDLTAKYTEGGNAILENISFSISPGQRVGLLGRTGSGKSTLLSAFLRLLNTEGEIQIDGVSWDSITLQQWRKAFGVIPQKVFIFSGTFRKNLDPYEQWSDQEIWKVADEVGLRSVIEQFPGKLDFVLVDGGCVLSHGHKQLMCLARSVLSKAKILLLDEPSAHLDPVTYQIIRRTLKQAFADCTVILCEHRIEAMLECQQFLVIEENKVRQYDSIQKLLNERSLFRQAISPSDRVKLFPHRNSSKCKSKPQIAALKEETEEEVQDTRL

Nc1cc(S(=O)(=O)c2ccc(C(F)(F)F)cc2)cnc1C(=O)N[C@H]1CCC[C@@H]1O [Compound 215, 3-amino-N-[(1S,2S)-2-hydroxycyclopentyl]-5-{[4-(trifluoromethyl)phenyl]sulfonyl}pyridine-2-carboxamide]
% Activation [1]: 57.6%
pEC50 [1]: 6.41
% Activation [2]: 109.8%
pEC50 [2]: 8.05

Nc1cc(S(=O)(=O)c2ccc(OC(F)(F)F)cc2)cnc1C(=O)N1CC(CO)C1 [Compound 66, (3-amino-5-{[4-(trifluoromethoxy)phenyl]sulfonyl}pyridin-2-yl)[3-(hydroxymethyl)azetidin-1-yl]methanone]
% Activation [1]: 60.8%
pEC50 [1]: 5.81
% Activation [2]: 106.0%
pEC50 [2]: 7.90

Nc1cc(S(=O)(=O)c2ccc(C(F)(F)F)cc2F)cnc1C(=O)N1CC(O)(C(F)(F)F)C1 [Compound 112, (3-amino-5-{[2-fluoro-4-(trifluoromethyl)phenyl]sulfonyl}pyridin-2-yl)[3-hydroxy-3-(trifluoromethyl)azetidin-1-yl]methanone]
% Activation [1]: 74.1%
pEC50 [1]: 6.80
% Activation [2]: 100.6%
pEC50 [2]: 8.59

Nc1cc(S(=O)(=O)c2ccc(OC(F)(F)F)cc2)cnc1C(=O)NCC1CC(F)(F)C1 [Compound 153, 3-amino-N-[(3,3-difluorocyclobutyl)methyl]-5-{[4-(trifluoromethoxy)phenyl]sulfonyl}pyridine-2-carboxamide]
% Activation [1]: 47.6%
pEC50 [1]: 6.12
% Activation [2]: 105.0%
pEC50 [2]: 7.12

Cc1ccc(S(=O)(=O)c2cnc(C(=O)NCC(O)C(F)(F)F)c(N)c2)cc1 (stereo not drawn) [Compound 245, 3-amino-5-[(4-methylphenyl)sulfonyl]-N-(3,3,3-trifluoro-2-hydroxypropyl)pyridine-2-carboxamide]
% Activation [1]: 80.8%
pEC50 [1]: 6.40
% Activation [2]: 114.0%
pEC50 [2]: 8.25

Nc1cc(S(=O)(=O)c2ccc(OC(F)(F)F)cc2)cnc1C(=O)NC1COC2(CCCC2)C1 (stereo not drawn) [Compound 150, 3-amino-N-(1-oxaspiro[4.4]non-3-yl)-5-{[4-(trifluoromethoxy)phenyl]sulfonyl}pyridine-2-carboxamide]
% Activation [1]: 49.7%
pEC50 [1]: 5.97
% Activation [2]: 116.0%
pEC50 [2]: 6.45

CCS(=O)(=O)c1cc(N)c(C(=O)NC[C@H](C)O)nc1-c1ccc(F)cc1 [Compound 263, 3-amino-5-(ethylsulfonyl)-6-(4-fluorophenyl)-N-[(2S)-2-hydroxypropyl]pyridine-2-carboxamide]
% Activation [1]: 5.99%
pEC50 [1]: 5.70
% Activation [2]: 97.2%
pEC50 [2]: 6.85

Nc1cc(S(=O)(=O)c2ccc(OC(F)(F)F)cc2)cnc1C(=O)N[C@H]1CCOC1 [Compound 144, 3-amino-N-[(3S)-tetrahydrofuran-3-yl]-5-{[4-(trifluoromethoxy)phenyl]sulfonyl}pyridine-2-carboxamide]
% Activation [1]: 50.6%
pEC50 [1]: 5.95
% Activation [2]: 92.6%
pEC50 [2]: 7.12

Nc1cc(S(=O)(=O)c2ccc(C(F)(F)F)cc2)cnc1C(=O)NC[C@H]1CCOC1 [Compound 101, 3-amino-N-[(3R)-tetrahydrofuran-3-ylmethyl]-5-{[4-(trifluoromethyl)phenyl]sulfonyl}pyridine-2-carboxamide]
% Activation [1]: 71.2%
pEC50 [1]: 5.80
% Activation [2]: 106.5%
pEC50 [2]: 7.19

Nc1cc(S(=O)(=O)c2ccc(C(F)(F)F)cc2)cnc1C(=O)NCC(O)COCC1CC1 (stereo not drawn) [Compound 131, 3-amino-N-[3-(cyclopropylmethoxy)-2-hydroxypropyl]-5-{[4-(trifluoromethyl)phenyl]sulfonyl}pyridine-2-carboxamide]
% Activation [1]: 68.6%
pEC50 [1]: 6.09
% Activation [2]: 110.2%
pEC50 [2]: 7.89

Nc1cc(S(=O)(=O)c2ccc(OC(F)(F)F)cc2F)cnc1C(=O)NCC(O)COCC1CC1 (stereo not drawn) [Compound 169, 3-amino-N-[3-(cyclopropylmethoxy)-2-hydroxypropyl]-5-{[2-fluoro-4-(trifluoromethoxy)phenyl]sulfonyl}pyridine-2-carboxamide]
% Activation [1]: 81.3%
pEC50 [1]: 5.95
% Activation [2]: 95.5%
pEC50 [2]: 7.86

Nc1cc(S(=O)(=O)N2CC[C@H](F)C2)cnc1C(=O)NCC(O)C(F)(F)F (stereo partly drawn) [Compound 180, 3-amino-5-{[(3S)-3-fluoropyrrolidin-1-yl]sulfonyl}-N-(3,3,3-trifluoro-2-hydroxypropyl)pyridine-2-carboxamide]
% Activation [1]: 30.2%
pEC50 [1]: < 5.00
% Activation [2]: 97.0%
pEC50 [2]: 6.97

Nc1cc(S(=O)(=O)c2ccc(C(F)(F)F)cc2)cnc1C(=O)NCC(O)COCC(F)(F)F (stereo not drawn) [Compound 201, 3-amino-N-[2-hydroxy-3-(2,2,2-trifluoroethoxy)propyl]-5-{[4-(trifluoromethyl)phenyl]sulfonyl}pyridine-2-carboxamide]
% Activation [1]: 59.8%
pEC50 [1]: 6.28
% Activation [2]: 104.0%
pEC50 [2]: 7.83

Nc1cc(S(=O)(=O)c2ccc(F)cc2)cnc1C(=O)NCC1(O)CC1 [Compound 30, 3-amino-5-[(4-fluorophenyl)sulfonyl]-N-[(1-hydroxycyclopropyl)methyl]pyridine-2-carboxamide]
% Activation [1]: 36.4%
pEC50 [1]: 5.24
% Activation [2]: 94.6%
pEC50 [2]: 7.27

Nc1cc(S(=O)(=O)c2ccc(C(F)(F)F)cc2)cnc1C(=O)NCCC(F)(F)F [Compound 212, 3-amino-5-{[4-(trifluoromethyl)phenyl]sulfonyl}-N-(3,3,3-trifluoropropyl)pyridine-2-carboxamide]
% Activation [1]: 33.0%
% Activation [2]: 96.7%
pEC50 [2]: 7.33

COCCCNC(=O)c1ncc(S(=O)(=O)c2ccc(C(F)(F)F)cc2)cc1N [Compound 222, 3-amino-N-(3-methoxypropyl)-5-{[4-(trifluoromethyl)phenyl]sulfonyl}pyridine-2-carboxamide]
% Activation [1]: 48.4%
pEC50 [1]: 6.09
% Activation [2]: 108.7%
pEC50 [2]: 7.39

COC1CN(C(=O)c2ncc(S(=O)(=O)c3ccc(OC(F)(F)F)cc3)cc2N)C1 [Compound 42, (3-amino-5-{[4-(trifluoromethoxy)phenyl]sulfonyl}pyridin-2-yl)(3-methoxyazetidin-1-yl)methanone]
% Activation [1]: 64.3%
pEC50 [1]: < 5.48
% Activation [2]: 105.5%
pEC50 [2]: 7.43

Nc1cc(S(=O)(=O)c2ccc(OC(F)(F)F)cc2)cnc1C(=O)NCC1(O)CCOCC1 [Compound 29, 3-amino-N-[(4-hydroxytetrahydro-2H-pyran-4-yl)methyl]-5-{[4-(trifluoromethoxy)phenyl]sulfonyl}pyridine-2-carboxamide]
% Activation [1]: 58.7%
pEC50 [1]: 5.82
% Activation [2]: 94.1%
pEC50 [2]: 7.26

CC(C)C1(O)CN(C(=O)c2ncc(S(=O)(=O)c3ccc(C(F)(F)F)cc3)cc2N)C1 [Compound 159, (3-amino-5-{[4-(trifluoromethyl)phenyl]sulfonyl}pyridin-2-yl)[3-hydroxy-3-(propan-2-yl)azetidin-1-yl]methanone]
% Activation [1]: 46.6%
pEC50 [1]: 6.62
% Activation [2]: 111.1%
pEC50 [2]: 8.36

Nc1cc(S(=O)(=O)c2ccc(OC(F)(F)F)cc2F)cnc1C(=O)N1CC(O)(C(F)(F)F)C1 [Compound 173, (3-amino-5-{[2-fluoro-4-(trifluoromethoxy)phenyl]sulfonyl}pyridin-2-yl)[3-hydroxy-3-(trifluoromethyl)azetidin-1-yl]methanone]
% Activation [1]: 47.6%
pEC50 [1]: 6.74
% Activation [2]: 98.3%
pEC50 [2]: 8.59

COCCS(=O)(=O)c1cc(N)c(C(=O)NC[C@H](C)O)nc1-c1ccc(F)cc1 [Compound 265, 3-amino-6-(4-fluorophenyl)-N-[(2S)-2-hydroxypropyl]-5-[(2-methoxyethyl)sulfonyl]pyridine-2-carboxamide]
% Activation [1]: 11.24%
pEC50 [1]: 5.70
% Activation [2]: 92.4%
pEC50 [2]: 6.85

CC(C)C(C)NC(=O)c1ncc(S(=O)(=O)c2ccc(C(F)(F)F)cc2)cc1N (stereo not drawn) [Compound 188, 3-amino-N-(3-methylbutan-2-yl)-5-{[4-(trifluoromethyl)phenyl]sulfonyl}pyridine-2-carboxamide]
% Activation [1]: 13.4%
pEC50 [1]: < 5.00
% Activation [2]: 88.8%
pEC50 [2]: 6.42

Nc1cc(S(=O)(=O)c2ccc(C(F)(F)F)cc2F)cnc1C(=O)NCC(O)COCC(F)(F)F (stereo not drawn) [Compound 213, 3-amino-5-{[2-fluoro-4-(trifluoromethyl)phenyl]sulfonyl}-N-[2-hydroxy-3-(2,2,2-trifluoroethoxy)propyl]pyridine-2-carboxamide]
% Activation [1]: 71.0%
pEC50 [1]: 6.38
% Activation [2]: 115.3%
pEC50 [2]: 8.22

Nc1cc(S(=O)(=O)c2ccc(OC(F)(F)F)cc2)cnc1C(=O)N1CC2(CCCOC2)C1 [Compound 121, (3-amino-5-{[4-(trifluoromethoxy)phenyl]sulfonyl}pyridin-2-yl)(6-oxa-2-azaspiro[3.5]non-2-yl)methanone]
% Activation [1]: 88.6%
pEC50 [1]: 5.88
% Activation [2]: 102%
pEC50 [2]: 6.95

Nc1cc(S(=O)(=O)c2ccc(OC(F)(F)F)cc2F)cnc1C(=O)N1CC(F)(F)C1 [Compound 172, (3-amino-5-{[2-fluoro-4-(trifluoromethoxy)phenyl]sulfonyl}pyridin-2-yl)(3,3-difluoroazetidin-1-yl)methanone]
% Activation [1]: 62.4%
pEC50 [1]: 6.06
% Activation [2]: 95.9%
pEC50 [2]: 7.87
